We go through 17 molecules from patent US20210395239A1 (Hoffmann-La Roche Inc., priority 2018, published 2021).

SMILES strings stand for the structures.

The experiment addresses T1, human TLR7 (Homo sapiens, UniProt Q9NYK1).
T1 construct: host or cells: HEK293 (HEK-Blue hTLR7)
T1 sequence (Q9NYK1 27-1049): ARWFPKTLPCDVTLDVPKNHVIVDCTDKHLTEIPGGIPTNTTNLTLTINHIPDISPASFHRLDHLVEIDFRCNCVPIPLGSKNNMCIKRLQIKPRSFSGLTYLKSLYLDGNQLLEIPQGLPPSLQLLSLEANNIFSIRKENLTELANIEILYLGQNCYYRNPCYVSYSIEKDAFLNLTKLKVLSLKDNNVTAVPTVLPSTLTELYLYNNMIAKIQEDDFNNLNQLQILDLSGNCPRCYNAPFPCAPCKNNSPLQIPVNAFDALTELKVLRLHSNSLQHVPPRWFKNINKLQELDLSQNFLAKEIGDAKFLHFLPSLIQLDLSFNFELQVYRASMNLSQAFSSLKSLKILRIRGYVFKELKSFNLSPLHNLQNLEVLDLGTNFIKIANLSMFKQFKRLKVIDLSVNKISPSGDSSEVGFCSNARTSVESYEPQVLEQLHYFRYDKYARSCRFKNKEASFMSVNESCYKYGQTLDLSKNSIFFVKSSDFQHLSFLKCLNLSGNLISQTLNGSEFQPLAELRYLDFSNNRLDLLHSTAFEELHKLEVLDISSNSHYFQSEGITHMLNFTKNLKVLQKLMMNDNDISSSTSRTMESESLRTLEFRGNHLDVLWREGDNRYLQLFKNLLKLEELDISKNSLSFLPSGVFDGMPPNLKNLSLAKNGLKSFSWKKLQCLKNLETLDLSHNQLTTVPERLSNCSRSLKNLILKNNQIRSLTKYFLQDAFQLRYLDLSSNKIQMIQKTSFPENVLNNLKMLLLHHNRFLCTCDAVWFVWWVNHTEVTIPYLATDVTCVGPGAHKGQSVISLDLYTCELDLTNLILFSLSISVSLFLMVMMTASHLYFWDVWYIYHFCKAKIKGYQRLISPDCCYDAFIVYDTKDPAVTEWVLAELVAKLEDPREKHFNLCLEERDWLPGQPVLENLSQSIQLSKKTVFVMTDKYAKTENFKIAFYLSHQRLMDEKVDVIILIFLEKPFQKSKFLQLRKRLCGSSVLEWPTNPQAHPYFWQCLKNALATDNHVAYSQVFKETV
As to the kind of experiment: HEK293-Blue-hTLR-7 cells assay (SEAP reporter, R848 stimulation). Type of experiment: cell-based. Conditions: HEK293-Blue-hTLR7 cells, R848, 20 hrs; read-out: HEK/hTLR7 IC50. In short, it runs like this: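 HEK293-Blue-hTLR7 cells (NF-κB/AP-1-driven SEAP reporter) were stimulated with R848 alongside serially diluted compound at 1% final DMSO for 20 h at 37 °C. Supernatant SEAP was then developed with QUANTI-Blue for 2 h at 37 °C and absorbance read at 620–655 nm; antagonism is measured as reduced reporter signal.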
For the molecule `C[C@@H]1CN(c2ccc(C#N)c3ncccc23)C[C@H](CN2CCN(c3ccnc(N4C[C@H]5NCCO[C@@H]5C4)n3)CC2)O1` [Example 103, 5-[(2S,6R)-2-[[4-[2-[(4aR,7aR)-3,4,4a,5,7,7a-hexahydro-2H-pyrrolo[3,4-b][1,4]oxazin-6-yl]pyrimidin-4-yl]piperazin-1-yl]methyl]-6-methyl-morpholin-4-yl]quinoline-8-carbonitrile], the IC50 came out at 10 nM.
For `Cc1ccc(N2C[C@H](CN3CCN(c4ccnc(N5CCN[C@@H](C)C5)n4)CC3)O[C@H](C)C2)c2nccnc12` [Example 127, (2R,6S)-2-methyl-6-[[4-[2-[(3S)-3-methylpiperazin-1-yl]pyrimidin-4-yl]piperazin-1-yl]methyl]-4-(8-methylquinoxalin-5-yl)morpholine], the IC50 was determined as 29 nM.
As for `C[C@@H]1CN(c2ccc(C#N)n3ncc(F)c23)C[C@H](CN2CC(c3ccc(N4CC(C)(N)C4)cc3)C2)O1` [Example 160, 4-[(2S,6R)-2-[[3-[4-(3-amino-3-methyl-azetidin-1-yl)phenyl]azetidin-1-yl]methyl]-6-methyl-morpholin-4-yl]-3-fluoro-pyrazolo[1,5-a]pyridine-7-carbonitrile], the figure is 11 nM.
As for `Cc1ccc(N2C[C@H](CN3CCN(c4ccnc(N5CC6(CNCCO6)C5)n4)CC3)O[C@H](C)C2)c2nccnc12` [Example 126, 2-[4-[4-[[(2S,6R)-6-methyl-4-(8-methylquinoxalin-5-yl)morpholin-2-yl]methyl]piperazin-1-yl]pyrimidin-2-yl]-5-oxa-2,8-diazaspiro[3.5]nonane], the figure is 21 nM.
Regarding `[2H]c1ccc2c(N3C[C@H](CN4CCN(c5ccc(N6C[C@H]7C[C@@H]6CN7)nc5)CC4)O[C@H](C)C3)ccc(C#N)c2n1` [Example 153, 2-deuterio-5-[(2S,6R)-2-[[4-[6-[(1R,4R)-2,5-diazabicyclo[2.2.1]heptan-2-yl]-3-pyridyl]piperazin-1-yl]methyl]-6-methyl-morpholin-4-yl]quinoline-8-carbonitrile], the IC50 was determined as 32 nM.
As for `C[C@@H]1CN(c2ccc(C#N)c3nccnc23)C[C@H](CN2CCN(c3ccnc(N4C[C@H](N)[C@@H](F)C4)n3)CC2)O1` [Example 107, 8-[(2S,6R)-2-[[4-[2-[(3S,4S)-3-amino-4-fluoro-pyrrolidin-1-yl]pyrimidin-4-yl]piperazin-1-yl]methyl]-6-methyl-morpholin-4-yl]quinoxaline-5-carbonitrile], the figure is 8 nM.
As for `[2H]c1ccc2c(N3C[C@H](CN4CCN(c5ncc(N6CC(C)(N)C6)cc5C)CC4)O[C@H](C)C3)ccc(C#N)c2n1` [Example 139, 5-[(2S,6R)-2-[[4-[5-(3-amino-3-methyl-azetidin-1-yl)-3-methyl-2-pyridyl]piperazin-1-yl]methyl]-6-methyl-morpholin-4-yl]-2-deuterio-quinoline-8-carbonitrile], the IC50 was determined as 20 nM.
As for `C[C@@H]1CN(c2ccc(C#N)c3ncccc23)C[C@H](CN2CCN(c3ccnc(N4C[C@H](N)[C@@H](F)C4)n3)CC2)O1` [Example 110, 5-[(2S,6R)-2-[[4-[2-[(3S,4S)-3-amino-4-fluoro-pyrrolidin-1-yl]pyrimidin-4-yl]piperazin-1-yl]methyl]-6-methyl-morpholin-4-yl]quinoline-8-carbonitrile], the figure is 14 nM; as for `CO[C@H]1CN(c2nc(C)cc(N3CCN(C[C@H]4CN(c5ccc(C#N)c6nccnc56)C[C@@H](C)O4)CC3)n2)C[C@@H]1N` [Example 106, 8-[(2S,6R)-2-[[4-[2-[(3S,4S)-3-amino-4-methoxy-pyrrolidin-1-yl]-6-methyl-pyrimidin-4-yl]piperazin-1-yl]methyl]-6-methyl-morpholin-4-yl]quinoxaline-5-carbonitrile], 9 nM; as for `[2H]c1ccc2c(N3C[C@H](CN4CCN(c5nc(C)cc(N6C[C@@H](N)[C@H](OC)C6)n5)CC4)O[C@H](C)C3)ccc(C#N)c2n1` [Example 144, 5-[(2S,6R)-2-[[4-[4-[(3R,4R)-3-amino-4-methoxy-pyrrolidin-1-yl]-6-methyl-pyrimidin-2-yl]piperazin-1-yl]methyl]-6-methyl-morpholin-4-yl]-2-deuterio-quinoline-8-carbonitrile], 11 nM.
The value for `[2H]c1nc2c(C#N)ccc(N3C[C@H](CN4CCN(c5nc(C)cc(N6CC(N)C6)n5)CC4)O[C@H](C)C3)c2nc1[2H]` [Example 124, 8-[(2S,6R)-2-[[4-[4-(3-aminoazetidin-1-yl)-6-methyl-pyrimidin-2-yl]piperazin-1-yl]methyl]-6-methyl-morpholin-4-yl]-2,3-dideuterio-quinoxaline-5-carbonitrile] was 5 nM; that for `C[C@@H]1CN(c2ccc(C#N)c3ncccc23)C[C@H](CN2CCN(c3ccnc(N4C[C@@H](N)[C@@H](F)C4)n3)CC2)O1` [Example 101, 5-[(2S,6R)-2-[[4-[2-[(3R,4S)-3-amino-4-fluoro-pyrrolidin-1-yl]pyrimidin-4-yl]piperazin-1-yl]methyl]-6-methyl-morpholin-4-yl]quinoline-8-carbonitrile] was 11 nM.
As for `[2H]c1ccc2c(N3C[C@H](CN4CCN(c5nc(OC)cc(N6CC(C)(N)C6)n5)CC4)O[C@H](C)C3)ccc(C#N)c2n1` [Example 131, 5-[(2S,6R)-2-[[4-[4-(3-amino-3-methyl-azetidin-1-yl)-6-methoxy-pyrimidin-2-yl]piperazin-1-yl]methyl]-6-methyl-morpholin-4-yl]-2-deuterio-quinoline-8-carbonitrile], the figure is 32 nM.
As to `C[C@@H]1CN(c2ccc(C#N)c3ncccc23)C[C@H](CN2CCC(c3cccc(N4CCNCC4)c3)C2)O1` (stereo partly drawn) [Example 1, 5-[(2R,6S)-2-methyl-6-[[3-(3-piperazin-1-ylphenyl)pyrrolidin-1-yl]methyl]morpholin-4-yl]quinoline-8-carbonitrile], the IC50 is 84 nM.
As for `C[C@@H]1CN(c2ccc(C#N)c3nccnc23)C[C@H](CN2CCN(c3ccnc(N4C[C@@H](N)[C@@H](F)C4)n3)CC2)O1` [Example 108, 8-[(2S,6R)-2-[[4-[2-[(3R,4S)-3-amino-4-fluoro-pyrrolidin-1-yl]pyrimidin-4-yl]piperazin-1-yl]methyl]-6-methyl-morpholin-4-yl]quinoxaline-5-carbonitrile], the IC50 worked out at 5 nM.
As for `C[C@@H]1CN(c2ccc(C#N)n3ncc(F)c23)C[C@H](CN2CC(c3ccc(N4C[C@@H]5C[C@H]4CN5)nc3)C2)O1` [Example 165, 4-[(2S,6R)-2-[[3-[6-[(1S,4S)-2,5-diazabicyclo[2.2.1]heptan-2-yl]-3-pyridyl]azetidin-1-yl]methyl]-6-methyl-morpholin-4-yl]-3-fluoro-pyrazolo[1,5-a]pyridine-7-carbonitrile], the IC50 was 7 nM.
In the case of `[2H]c1ccc2c(N3C[C@H](CN4CCN(c5ccc(N6CC(C)(N)C6)nc5C)CC4)O[C@H](C)C3)ccc(C#N)c2n1` [Example 137, 5-[(2S,6R)-2-[[4-[6-(3-amino-3-methyl-azetidin-1-yl)-2-methyl-3-pyridyl]piperazin-1-yl]methyl]-6-methyl-morpholin-4-yl]-2-deuterio-quinoline-8-carbonitrile], the IC50 came out at 19 nM.
